Data from patent US20050181029A1, “Distributed drug dispensing matrix as a transdermal patch” (priority 2004, published 2005).

Experiments:
Format in all cases: in vitro ADME, pig
[1] = Polycarbonate/teflon array assembly, mannitol delivery across skin vs Franz diffusion cell; conditions: reservoir size approaching 2.5 mm vs single 8 mm (16 mm diameter Franz cell) reservoir; 10 μCi/mL 3H-mannitol in 0.5% SLS in PBS; 24 hours
Description: The present invention is a novel transdermal drug delivery patch with an array of spatially organized reservoirs. In order to verify the validity of our invention we used three different assemblies, simulating the proposed matrix patch, that in essence provide the same working principle. All experiments were performed using pig skin. Skin was harvested from pigs (15) and was stored at −70° C. until the time of experiments. Skin was thawed at room temperature just before using it for experiments. A brief discussion of the experimental system used for the three cases follows. I. Polycarbonate/Teflon Array Assembly: This assembly consists of two plates made of polycarbonate/teflon—a donor plate and a receiver plate. The top plate (donor plate) has through holes (wells) drilled in it, each of which acts as an isolated donor chamber. The bottom plate (receiver plate) also has holes (wells) drilled in the same pattern as the donor plate and simulates the receiver compartment. The skin is placed between the donor and receiver plate and the plate assembly is clamped using four screws. […] At the end of 24 hours samples were drawn from the receiver plate and analyzed in a liquid scintillation counter (Packard Tri-Carb 2100TR, Packard Instrument Company, Meriden, Conn.). […] The data was then analyzed to verify any effect of a distributed dispensing system on the amount of drug delivered across the skin. […]

[2] = Polymer (polyurethane) array assembly, mannitol skin permeability; conditions: polyurethane arrays, reservoirs 6 to 2 mm, relative to 6 mm reservoir; 0.5% SLS in PBS; 24 hrs; no clamping
Description: Polymer (Polyurethane) Array Assembly: Skin was placed in a PBS receiver fluid (10 ml) such that PBS contacted the skin on all sides and the bottom but not the top (FIG. 5). An array of liquid reservoirs was created by punching circular holes in a matrix pattern in a polyurethane slab (thickness=5 mm). These holes were separated from each other by one diameter. Such arrays were made for different size reservoirs (diameters in the range of 2-6 mm). The top surface of the skin was dried of any surface moisture. […]
Transdermal transport experiments were performed using mannitol as a model solute and sodium lauryl sulfate (SLS) as a model enhancer. […] Skin permeability in the skin exposed to reservoirs was calculated for each reservoir size by dividing the total amount delivered by the number of reservoirs, area of each reservoir, contact time, and mannitol concentration in each reservoir. Enhancement factors corresponding to various reservoir sizes were then calculated with reference to the permeability obtained from the largest reservoir (6 mm).
The enhancements are calculated with respect to the permeability obtained from a 6 mm reservoir.

[3] = Agar gel disc assembly on Franz diffusion cell, mannitol skin permeability; conditions: agar gel disks 16, 9, 5 and 3 mm, relative to 16 mm disk; 0.5% SLS in PBS; 24 hrs
Description: All experiments were performed using pig skin. Skin was harvested from pigs (15) and was stored at −70° C. until the time of experiments. Skin was thawed at room temperature just before using it for experiments. […] Agar Gel Disc Assembly: A third experimental system was used to assess the dependence of permeability on contact area. In this system, permeation of mannitol from gel disks was studied. For this purpose, agar gel disks were prepared by dissolving 0.5 gm agar (Becton Dickinson Microbiology Systems, Sparks, Md.) in 20 ml of 0.5% solution (w/v) SLS in PBS. 10 μCi/ml ^3H radiolabeled mannitol was added to the mixture. The mixture was heated until agar formed a viscous solution. The viscous mixture was allowed to settle into a gel by pouring it into a petri dish to form a circular disc of 3.5 mm thickness. Disks of various diameters (16, 9, 5, and 3 mm) were then cut using a punch. […] Receiver compartments were sampled over 24 hrs and concentration of radiolabeled mannitol in these samples was measured using a scintillation counter. Permeability was calculated for each reservoir size by dividing the total flux obtained by the number of reservoirs at that particular size. Enhancement factors were calculated by dividing the permeability obtained from a disk of a particular size with reference to permeability obtained from the largest disk (16 mm).

[4] = Patches holding agar gel disc reservoir arrays at constant area fraction, mannitol delivery; conditions: 3 mm reservoir array (28 reservoirs) vs one 16 mm reservoir; area fraction ~20%; skin area 10.25 cm^2; identical formulation
Description: All enhancements are obtained by normalizing the amount delivered into the skin at any particular reservoir size to that delivered at 16 mm. Error bars correspond to one standard deviation (n=5).
To experimentally determine the enhancement obtained by reservoir arrays, we created patches holding reservoir arrays containing ^3H labeled mannitol as the model solute. These patches were created at varying reservoir sizes (16 mm, 9 mm, 5 mm and 3 mm). In these patches, the reservoirs were arranged in a square pattern with the center-to-center distance between two adjacent reservoirs set to twice the reservoir diameter. […] Keeping the area fraction the same for all the reservoir sizes (˜20%) drug reservoirs were placed on these skin pieces.

OC[C@@H](O)[C@@H](O)[C@H](O)[C@H](O)CO [mannitol]
amount of mannitol delivered across the skin per unit area, normalized to single continuous reservoir [1]: exceeding 10 fold | mannitol permeability enhancement as a function of reciprocal of reservoir size [2]: permeability enhancement increases with inverse reservoir size | mannitol permeability enhancement for varying reservoir sizes [3]: significant increase in permeability is observed with a decrease in disk diameter | amount of mannitol delivered per unit macroscopic area, array vs single large reservoir [4]: about 11 times
